# Measured values reported in article PMC8587515, “Cytotoxic and Anti-Inflammatory Activities of Dihydroisocoumarin and Xanthone Derivatives from Garcinia picrorhiza” (Molecules, 2021).
# Assays:
# [1] = molecular target: T1, COX-1 (purified PGHS-1 from ram seminal vesicles) (Ovis aries, UniProt P05979); parameters: method as in PMID 32627543; settings: at 20 µM; cited from earlier work
# T1 construct: Purified PGHS-1 from ram seminal vesicles for COX-1; purchased Cayman Chemical Co., Ann Arbor, MI, USA; host or cells: ram seminal vesicles (tissue-purified)
# T1 sequence (P05979 25-600): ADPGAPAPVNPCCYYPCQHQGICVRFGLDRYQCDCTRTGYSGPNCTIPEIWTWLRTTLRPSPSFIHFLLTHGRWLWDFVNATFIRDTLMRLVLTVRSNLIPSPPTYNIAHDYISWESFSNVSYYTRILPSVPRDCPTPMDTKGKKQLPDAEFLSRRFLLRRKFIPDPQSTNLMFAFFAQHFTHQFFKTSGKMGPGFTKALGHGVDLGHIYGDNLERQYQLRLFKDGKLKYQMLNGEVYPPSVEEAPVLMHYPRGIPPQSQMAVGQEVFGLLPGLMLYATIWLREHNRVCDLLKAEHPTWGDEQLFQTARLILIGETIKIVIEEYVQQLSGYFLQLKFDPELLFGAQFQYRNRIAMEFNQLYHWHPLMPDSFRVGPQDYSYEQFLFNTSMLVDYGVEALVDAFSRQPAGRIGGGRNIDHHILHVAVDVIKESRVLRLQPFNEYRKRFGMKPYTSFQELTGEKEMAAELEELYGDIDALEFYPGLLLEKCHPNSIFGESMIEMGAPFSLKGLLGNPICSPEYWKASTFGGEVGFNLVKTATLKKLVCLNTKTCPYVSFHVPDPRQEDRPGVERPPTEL
# [2] = tested on: KB (human epidermoid carcinoma); assay: MTT cytotoxic activity assay, KB; type: cell-based; settings: 72 h, mean ± SEM of three replicates
# Description: (§1) The cytotoxic activity of the isolated compounds was evaluated using the MTT viability assay with doxorubicin as the positive control and the results are presented in Table 2.
# (§2) The MTT colorimetric method was performed to evaluate cytotoxic activity of the isolated compounds against human epidermoid carcinoma (KB; ATCC CCL17), human cervical carcinoma (HeLa S3; ATCC CCL2-2), human colon adenocarcinoma (HT-29; ATCC HTB-38), human breast adenocarcinoma (MCF-7; ATCC HTB-22), and human hepatocellular carcinoma (Hep G2; ATCC HB-8065) cell lines according to the previous method. The cancer cells were cultured in MEM containing 10% fetal bovine serum in the presence of 100 U/mL penicillin and 100 μg/mL streptomycin sulphate (Gibco, Rockville, MD, USA), seeded in a 96-well plate (3000 cells/well), and pre-incubated at 37 °C for 24 h in a 5% CO2 humidified atmosphere. The tested compounds with serial concentrations (0.3–100 μM) were added and incubated for a further 72 h in the same condition. At the end of treatment, 20 µL of MTT solution (5 mg/mL in PBS, Sigma, St. Louis, MI, USA) was added to each well and further incubated for 3 h. After centrifugation at 1400 rpm for 5 min at 4 °C, the supernatant was decanted and DMSO (100 µL/well) was added to allow formazan product solubilization, which was subsequently measured by a microplate reader (Tecan Trading AG, Switzerland) at wavelength 550 nm. Control cells were treated with 0.1% DMSO. Doxorubicin (tested concentrations: 0.01–3.0 μM, Sigma) was used as the positive control. The results are expressed as the mean values of three replicates for three independent experiments. IC50 values were determined by graphical analysis using SigmaPlot 10 (Systat Software Inc., San Jose, CA, USA), obtained by plotting the cell viability percentage versus sample concentration.
# [3] = tested on: HeLa S3 (human cervical carcinoma); assay: MTT cytotoxic activity assay, HeLa S3; type: cell-based; settings: 72 h, mean ± SEM of three replicates
# Description: as §1, §2
# [4] = tested on: MCF-7 (human breast adenocarcinoma); assay: MTT cytotoxic activity assay, MCF-7; type: cell-based; settings: MCF7, 72 h, mean ± SEM of three replicates
# Description: as §1
# (§3) The MTT colorimetric method was performed to evaluate cytotoxic activity of the isolated compounds against human epidermoid carcinoma (KB; ATCC CCL17), human cervical carcinoma (HeLa S3; ATCC CCL2-2), human colon adenocarcinoma (HT-29; ATCC HTB-38), human breast adenocarcinoma (MCF-7; ATCC HTB-22), and human hepatocellular carcinoma (Hep G2; ATCC HB-8065) cell lines according to the previous method. […] After centrifugation at 1400 rpm for 5 min at 4 °C, the supernatant was decanted and DMSO (100 µL/well) was added to allow formazan product solubilization, which was subsequently measured by a microplate reader (Tecan Trading AG, Switzerland) at wavelength 550 nm. […] The results are expressed as the mean values of three replicates for three independent experiments. IC50 values were determined by graphical analysis using SigmaPlot 10 (Systat Software Inc., San Jose, CA, USA), obtained by plotting the cell viability percentage versus sample concentration.
# [5] = tested on: Hep G2 (human hepatocellular carcinoma); assay: MTT cytotoxic activity assay, Hep G2; type: cell-based; settings: HepG2, 72 h, mean ± SEM of three replicates
# Description: as §1, §3
# [6] = tested on: HT-29 (human colon adenocarcinoma); assay: MTT cytotoxic activity assay, HT-29; type: cell-based; settings: 72 h, mean ± SEM of three replicates
# Description: as §1, §3
Structure (SMILES),"COX-1 inhibitory activity, % inhibition [1] [%]",IC50 [2] [nM],IC50 [3] [nM],IC50 [4] [nM],IC50 [5] [nM],IC50 [6] [nM]
C=C(C)[C@H]1C[C@@H](C[C@@]23C[C@@H](/C=C/C(C)C)C(C)(C)[C@@](CC=C(C)C)(C2=O)c2oc4cc(O)c(O)cc4c(=O)c2C3=O)C1(C)C [picrorhizone H],35.2 ± 9.6,,,,,
"COc1cccc2c1C(=O)c1c(O)c3c(c(O)c1C2=O)C[C@@](O)(C(=O)CO)C[C@@H]3O[C@H]1C[C@H](N)[C@H](O)[C@H](C)O1 [Doxorubicin, reference compound]",,20 ± 10,150 ± 20,1290 ± 20,1000 ± 170,590 ± 30
